US20190071416A1, “COMPOUNDS FOR TREATMENT OF CANCER AND EPIGENETICS” (Agency For Science, Technology and Research, priority 2015, published 2019)

Target: T1, SMYD3 (Homo sapiens, UniProt Q9H7B4)
T1 sequence (Q9H7B4 1-428): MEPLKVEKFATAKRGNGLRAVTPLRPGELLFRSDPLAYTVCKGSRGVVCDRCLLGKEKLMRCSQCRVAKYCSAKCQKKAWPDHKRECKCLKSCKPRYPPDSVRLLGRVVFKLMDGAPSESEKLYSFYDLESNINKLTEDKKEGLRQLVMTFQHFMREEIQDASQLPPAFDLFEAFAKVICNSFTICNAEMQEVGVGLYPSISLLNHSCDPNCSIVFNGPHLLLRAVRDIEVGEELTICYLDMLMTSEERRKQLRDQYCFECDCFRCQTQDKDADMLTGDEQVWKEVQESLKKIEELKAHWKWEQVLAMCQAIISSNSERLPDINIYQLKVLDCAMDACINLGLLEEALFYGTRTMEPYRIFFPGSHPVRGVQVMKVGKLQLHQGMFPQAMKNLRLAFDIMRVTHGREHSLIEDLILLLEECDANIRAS
Test: SMYD3 biochemical assay (MTase-Glo, MAP3K2 peptide substrate)
Details: for IC50: Table 3, MTase assay, MAP3K2 peptide substrate, read-out: IC50
Procedure, shortened: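 Luminescent readout of SAH production (coupled SAH→ATP conversion, MTase-Glo) after SMYD3 reacted 30 min at room temperature with 1.0 µM SAM and 10 µM MAP3K2 peptide, both final. Non-linear regression gave IC50 values.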

Row | SMILES | IC50 [nM] | activity against SMYD3
1 | CCCOC(=O)N1CCN(C(=O)c2ccc3c(Cl)cc(-c4cnn(C5CCCC5)c4)nc3c2)CC1 [B277, Propyl 4-(4-chloro-2-(1-cyclopentyl-1H-pyrazol-4-yl)quinoline-7-carbonyl)piperazine-1-carboxylate] | 60 | –
2 | NC(=O)C1CCN(CC(=O)Nc2ccc(Br)cc2)CC1 [BCI-121, reference compound] | – | inactive
3 | C=CCOC(=O)N1CCN(C(=O)c2ccc3c(Cl)c4c(nc3c2)CCC4)CC1 [C002, Allyl 4-(9-chloro-2,3-dihydro-1H-cyclopenta[b]quinoline-6-carbonyl)piperazine-1-carboxylate] | 10000 | –
4 | CCCOC(=O)N1CCN(C(=O)c2ccc3c(Cl)c(C)c(C)nc3c2)CC1 [C003, Propyl 4-(4-chloro-2,3-dimethylquinoline-7-carbonyl)piperazine-1-carboxylate] | 3000 | –
5 | CCCOC(=O)N1CCN(C(=O)c2ccc3c(Cl)c(C#N)c(C)nc3c2)CC1 [C006, Propyl 4-(4-chloro-3-cyano-2-methylquinoline-7-carbonyl)piperazine-1-carboxylate] | 2800 | –
6 | CCCOC(=O)N1C2CCCC1CN(C(=O)c1ccc3c(Cl)ccnc3c1)C2 [C007, Propyl 3-(4-chloroquinoline-7-carbonyl)-3,9-diazabicyclo[3.3.1]nonane-9-carboxylate] | 550 | –
7 | CCCOC(=O)N1CCN(C(=O)c2ccc3c(Cl)c4c(nc3c2)CCNC4)CC1 [C008, Propyl 4-(10-chloro-1,2,3,4-tetrahydrobenzo[b][1,6]naphthyridine-7-carbonyl)piperazine-1-carboxylate] | 4600 | –
8 | O=C(c1ccc2c(Cl)cc(-c3ccccc3)nc2c1)N1CCN(C(=O)c2cn(C3CC3)nn2)CC1 [D002, (4-Chloro-2-phenylquinolin-7-yl)(4-(1-cyclopropyl-1H-1,2,3-triazole-4-carbonyl)piperazin-1-yl)methanone] | 4 | –
9 | Cn1ccc(-c2cc(Cl)c3ccc(C(=O)N4CCN(C(=O)c5cn(C6CC6)nn5)CC4)cc3n2)c1 [D003, (4-Chloro-2-(1-methyl-1H-pyrrol-3-yl)quinolin-7-yl)(4-(1-cyclopropyl-1H-1,2,3-triazole-4-carbonyl)piperazin-1-yl)methanone] | 25 | –
10 | Cn1cc(C(=O)N2CCN(C(=O)c3ccc4c(Cl)cc(-c5ccccc5)nc4c3)CC2)nn1 [D007, (4-Chloro-2-phenylquinolin-7-yl)(4-(1-methyl-1H-1,2,3-triazole-4-carbonyl)piperazin-1-yl)methanone] | 83 | –
11 | CC(C)(C)n1cc(C(=O)N2CCN(C(=O)c3ccc4c(Cl)cc(-c5ccccc5)nc4c3)CC2)nn1 [D008, (1-(Tert-butyl)-1H-1,2,3-triazol-4-yl)(4-(4-chloro-2-phenylquinoline-7-carbonyl)piperazin-1-yl)methanone] | 450 | –
12 | O=C(c1ccc2c(Cl)cc(-c3ccccc3)nc2c1)N1CCN(C(=O)c2cnn(C3CC3)c2)CC1 [D011, (4-Chloro-2-phenylquinolin-7-yl)(4-(1-cyclopropyl-1H-pyrazole-4-carbonyl)piperazin-1-yl)nethanone] | 200 | –
13 | NC1(c2ccc(-c3cc(Cl)c4ccc(C(=O)N5CCN(C(=O)c6cn(C7CC7)nn6)CC5)cc4n3)cc2)CC1 [D013, (2-(4-(1-Aminocyclopropyl)phenyl)-4-chloroquinolin-7-yl)(4-(1-cyclopropyl-1H-1,2,3-triazole-4-carbonyl)piperazin-1-yl)methanone] | 78 | –
14 | COc1ccc(-c2cc(Cl)c3ccc(C(=O)N4CCN(C(=O)c5cn(C6CC6)nn5)CC4)cc3n2)cc1CN [D014, (2-(3-(Aminomethyl)-4-methoxyphenyl)-4-chloroquinolin-7-yl)(4-(1-cyclopropyl-1H-1,2,3-triazole-4-carbonyl)piperazin-1-yl)methanone] | 69 | –
15 | NCc1cc(-c2cc(Cl)c3ccc(C(=O)N4CCN(C(=O)c5cn(C6CC6)nn5)CC4)cc3n2)ccc1F [E019, (2-(3-(Aminomethyl)-4-fluorophenyl)-4-chloroquinolin-7-yl)(4-(1-cyclopropyl-1H-1,2,3-triazole-4-carbonyl)piperazin-1-yl)methanone] | 39 | –

Further lines, results first:

Row | IC50 [nM] | activity against SMYD3 | SMILES
16 | 22 | – | CCCOC(=O)N1CCN(C(=O)c2ccc3c(Cl)cc(-c4cnn(C5CCCC5)c4)nc3c2)C[C@H]1C [B278, Propyl (R)-4-(4-chloro-2-(1-cyclopentyl-1H-pyrazol-4-yl)quinoline-7-carbonyl)-2-methylpiperazine-1-carboxylate]
17 | 20 | – | CCCOC(=O)N1CCN(C(=O)c2ccc3c(Cl)cc(-c4cnn(C5CCCC5)c4)nc3c2)C[C@@H]1C [B279, Propyl (S)-4-(4-chloro-2-(1-cyclopentyl-1H-pyrazol-4-yl)quinoline-7-carbonyl)-2-methylpiperazine-1-carboxylate]
18 | 67 | – | CCCOC(=O)N1CCN(C(=O)c2ccc3c(Cl)cc(-c4ccc(OC)c(CN)c4)nc3c2)C[C@@H]1C [B280, Propyl (S)-4-(2-(3-(aminomethyl)-4-methoxyphenyl)-4-chloroquinoline-7-carbonyl)-2-methylpiperazine-1-carboxylate]
19 | 12 | – | CCCOC(=O)N1CCN(C(=O)c2ccc3c(Cl)cc(-c4ccc(C5(N)CC5)cc4)nc3c2)C[C@H]1C [B281, Propyl (R)-4-(2-(4-(1-aminocyclopropyl)phenyl)-4-chloroquinoline-7-carbonyl)-2-methylpiperazine-1-carboxylate]
20 | 13 | – | CCCOC(=O)N1CCN(C(=O)c2ccc3c(Cl)cc(-c4ccc(C(C)(C)CN)cc4)nc3c2)C[C@H]1C [B282, Propyl (R)-4-(2-(4-(1-amino-2-methylpropan-2-yl)phenyl)-4-chloroquinoline-7-carbonyl)-2-methylpiperazine-1-carboxylate]
21 | 280 | – | CCCOC(=O)N1CCN(C(=O)c2ccc3c(Cl)cc(-c4ccc(C(C)N5CCCC5)cc4)nc3c2)C[C@H]1C (stereo partly drawn) [B283, Propyl (2R)-4-(4-chloro-2-(4-(1-(pyrrolidin-1-yl)ethyl)phenyl)quinoline-7-carbonyl)-2-methylpiperazine-1-carboxylate]
22 | 24 | – | CCCOC(=O)N1CCN(C(=O)c2ccc3c(Cl)cc(-c4ccc(C(C)N(C)C)cc4)nc3c2)C[C@H]1C (stereo partly drawn) [B284, Propyl (2R)-4-(4-chloro-2-(4-(1-(dimethylamino)ethyl)phenyl)quinoline-7-carbonyl)-2-methylpiperazine-1-carboxylate]
23 | 13 | – | CCCOC(=O)N1CCN(C(=O)c2ccc3c(Cl)cc(-c4ccc(C(C)(C)CN)cc4)nc3c2)CC1 [B285, Propyl 4-(2-(4-(1-amino-2-methylpropan-2-yl)phenyl)-4-chloroquinoline-7-carbonyl)piperazine-1-carboxylate]
24 | 25 | – | CCCOC(=O)N1CCN(C(=O)c2ccc3c(Cl)cc(-c4ccc(C(C)(C)CNC)cc4)nc3c2)CC1 [B286, Propyl 4-(4-chloro-2-(4-(2-methyl-1-(methylamino)propan-2-yl)phenyl)quinoline-7-carbonyl)piperazine-1-carboxylate]
25 | 130 | – | CCCOC(=O)N1CCN(C(=O)c2ccc3c(Cl)cc(-c4ccc(C(C)(C)CN(C)C)cc4)nc3c2)CC1 [B287, Propyl 4-(4-chloro-2-(4-(1-(dimethylamino)-2-methylpropan-2-yl)phenyl)quinoline-7-carbonyl)piperazine-1-carboxylate]
26 | 1400 | – | CCCOC(=O)N1CCN(C(=O)c2ccc3c(Cl)cc(CC)nc3c2)CC1 [C004, Propyl 4-(4-chloro-2-ethylquinoline-7-carbonyl)piperazine-1-carboxylate]
27 | 13600 | – | C[C@@H]1CN(C(=O)c2ccc3c(Cl)cc(-c4ccn(C)c4)nc3c2)CCN1C(=O)C[C@H]1CCC(=O)N1 [D001, (R)-5-(2((R)-4-(4-Chloro-2-(1-methyl-1H-pyrrol-3-yl)quinoline-7-carbonyl)-2-methylpiperazin-1-yl)-2-oxoethyl)pyrrolidin-2-one]
28 | 13 | – | C[C@@H]1CN(C(=O)c2ccc3c(Cl)cc(-c4ccn(C)c4)nc3c2)CCN1C(=O)c1cn(C2CC2)nn1 [D004, (R)-(4-Chloro-2-(1-methyl-1H-pyrrol-3-yl)quinolin-7-yl)(4-(1-cyclopropyl-1H-1,2,3-triazole-4-carbonyl)-3-methylpiperazin-1-yl)methanone]
29 | 77 | – | C[C@@H]1CN(C(=O)c2ccc3c(Cl)cc(-c4ccccc4)nc3c2)CCN1C(=O)c1cn(C2CC2)nn1 [D005, (R)-(4-Chloro-2-phenylquinolin-7-yl)(4-(1-cyclopropyl-1H-1,2,3-triazole-4-carbonyl)-3-methylpiperazin-1-yl)methanone]
30 | 52 | – | C[C@@H]1CN(C(=O)c2ccc3c(Cl)cc(-c4ccc(C(C)(C)O)cc4)nc3c2)CCN1C(=O)c1cn(C2CC2)nn1 [D006, (R)-(4-Chloro-2-(4-(2-hydroxypropan-2-yl)phenyl)quinolin-7-yl)(4-(1-cyclopropyl-1H-1,2,3-triazole-4-carbonyl)-3-methylpiperazin-1-yl)methanone]
31 | 100 | – | CC(C)(CN)c1ccc(-c2cc(Cl)c3ccc(C(=O)N4CCN(C(=O)c5cn(C6CC6)nn5)CC4)cc3n2)cc1 [D012, (2-(4-(1-Amino-2-methylpropan-2-yl)phenyl)-4-chloroquinolin-7-yl)(4-(1-cyclopropyl-1H-1,2,3-triazole-4-carbonyl)piperazin-1-yl)nethanone]
